Laboratory results taken from patent US9364479B2, “Use of a receptor-type kinase modulator for treating polycystic kidney disease” (SYMPHONY EVOLUTION, INC., priority 2010, dated 2016).
Marks after values point to notes of the source that are not given here.

Columns and labels:
[1] = Clinical safety data, 159 subjects with cancer; conditions: human, in vivo
[2] = biological target: T1, Thyrotropin Releasing Hormone, TRH (Homo sapiens, UniProt P34981); test: NovaScreen assay; type: binding; conditions: read-out: Inhibition, 10 μM XL-647
T1 construct: NovaScreen

AMPK = test: In vitro kinase inhibition screen; type: biochemical
Procedure: (§1) Further screening was performed using the biochemical assay methods of Example 2. Additional description of the components and concentrations are summarized in Table 8, Table 9, and Table 10, below.

PDGFRβ = PDGFRβ (Homo sapiens, UniProt P09619); test: In vitro kinase inhibition screen; type: biochemical
Procedure: as §1

CamKII = test: In vitro kinase inhibition screen; type: biochemical
Procedure: as §1

SAPK3 = SAPK3 (Homo sapiens, UniProt P53778); test: In vitro kinase inhibition screen; type: biochemical
Procedure: as §1

JNK3α = JNK3α (Homo sapiens, UniProt P53779); test: In vitro kinase inhibition screen; type: biochemical
Procedure: as §1

Syk = Syk (Homo sapiens, UniProt P43405); test: In vitro kinase inhibition screen; type: biochemical
Procedure: as §1

Blk = Blk (Homo sapiens, UniProt P51451); test: In vitro kinase inhibition screen; type: biochemical
Procedure: as §1

CDK5 = CDK5 (Homo sapiens, UniProt Q00535); test: In vitro kinase inhibition screen; type: biochemical
Procedure: as §1

MKK6 = MKK6 (Homo sapiens, UniProt P52564); test: In vitro kinase inhibition screen; type: biochemical
Procedure: as §1

CDK2 = CDK2 (Homo sapiens, UniProt P24941); test: In vitro kinase inhibition screen; type: biochemical
Procedure: as §1

PKC-γ = PKC-γ (Homo sapiens, UniProt P05129); test: In vitro kinase inhibition screen; type: biochemical
Procedure: as §1

[3] = tested on: Adrenergic, Alpha 1, Non-selective; test: NovaScreen assay; type: binding
p-Y-HER2/ErbB2 = biological target: T2, p-Y-HER2/ErbB2 (Homo sapiens, UniProt P04626); test: In vivo receptor phosphorylation, BT474 xenografts; design: species or system mouse; conditions: Phospho
T2 construct: endogenous in cells; host or cells: BT474 tumour xenografts in mice (per the earlier reading)

Phospho-EGFR Tyr1068 = biological target: T3, Phospho-EGFR Tyr1068 (Homo sapiens, UniProt P00533, L858R/T790M); test: Immunohistochemical analysis of phosphorylation in H1975 xenografts; type: in vivo, mouse; conditions: 14-day dosing
T3 construct: host or cells: H1975 (cultured cells; s.c. xenografts in mice)
Procedure: For immunohistochemical analysis of H1975, MDA-MB-231 and other xenografts, tumors were excised after euthanasia and fixed in zinc fixative (BD Biosciences) for 48 h before being processed into paraffin blocks. Serial sections at 5 μm were obtained from the area of largest possible surface for each tumor and stained using standard methods. The following antibodies were used: Ki67 (SP6; Labvision), CD31 (MECA.32; BD Biosciences), pERK^Thr202/Tyr204 (phospho-p44/42 mitogen-activated protein kinase; Cell Signaling Technology), pAKT^Ser473 (Cell Signaling Technology), and pEGFR^Tyr1068 (Cell Signaling Technology). For immunofluorescent staining, sections were then incubated with Alexa 594-conjugated goat anti-rabbit secondary antibody (Invitrogen) and mounted in Fluorescent Mounting Medium (DAKO) containing 4′,6-diamidino-2-phenylindole (Molecular Probes) as a nuclear counterstain. Fluorescent staining was visualized using a Zeiss Axiolmager and digitally captured using a Zeiss high-resolution camera coupled to AxioVision image analysis software. Two to three nonoverlapping representative fields were captured at ×200 or ×400 magnification depending on histologic readout and quantified using the integrated morphometric analysis functions in Metamorph software (Universal Imaging Corp.). Apoptotic cells were detected using terminal deoxynucleotidyl transferase-mediated dUTP nick end labeling in situ cell death detection kit according to the manufacturer's instructions (Roche Diagnostics GmbH).
Results are presented as mean±SD or SE as indicated for each graph or table. For IC50 comparison in the A431 cell viability experiment, two sample Student's t tests were applied to determine P values for each IC50 pair assuming that the random fluctuations of replicates around the dose-response curve are distributed [log]normally with the individual replicates used as the ‘sample size’ for the t test (nine point dose response done in triplicate).

[4] = tested on: H1975 human tumor xenograft; test: H1975 xenograft, tumor growth; type: in vivo; conditions: Mus musculus, NCI-H1975; qd × 14
Procedure: Before treatment, H1975, A431, or MDA-MB-231 cells were harvested from exponentially growing cultures, detached by brief trypsinization, washed twice in cold HBSS, resuspended in ice-cold HBSS, and implanted either s.c. (H1975, 3×10^6 cells per mouse) or i.d. (A431, 1×10^6 cells per mouse) into the dorsal hind flank or s.c. into the mammary fat pad (MDA-MB-231, 1×10^6 cells per mouse). Palpable tumors were measured by caliper twice weekly until the mean tumor weight was in the range of ˜80 to 120 mg. Tumor weight was determined by measuring perpendicular diameters with a caliper and multiplying the measurements of diameters in two dimensions: tumor volume (mm^3)/2=length (mm)×width (mm^2)/2. […] The mean tumor weight of each animal in the respective control and treatment groups was determined twice weekly during the dosing periods. […]
The response of tumors to treatment was determined by comparing the mean tumor weight of the treatment group with the appropriate control group. Percentage inhibition of tumor growth was determined with the following formula: Percentage inhibition=100×[1−(Xf−Xo)/(Yf−Yo)], where Xf and Yf are the mean tumor weights of the treatment and control groups, respectively, on day f, and Xo and Yo are the mean tumor weights of treatment and control groups respectively, on day zero (staged tumor weights after grouping)

[5] = human
EGFR WT (pCMV/Lx-1) = EGFR WT (pCMV/Lx-1) (Homo sapiens, UniProt P00533); test: EGFR phosphorylation ELISA in transfected Lx-1 cells
Text: Lx-1 cells were used because they lack background EGFR activity. A clone corresponding to the longest EGFR isoform (Genbank accession no. NM_005228.3/NP_005219.2 #21-176, Upstate Biotechnology) was used as a template to produce two mutant EGFR genes (coding for L858R and L861Q) by site-directed mutagenesis. The WT and the two sequence-verified mutants were transferred to a COOH-terminal Flag-tagged retroviral cytomegalovirus promoter-driven mammalian expression vector. The two Tet-On expression vectors, EGFR WT (Tet-On) and EGFRvIII (Tet-On), which were COOH-terminally Flag tagged, were generously provided by Dr. Abhijit Guha (University of Toronto, Toronto, Ontario, Canada).
Transient transfections of Lx-1 cells were done using Lipofectamine 2000 (Invitrogen) according to the manufacturer's protocol. For transfections of the WT, L858R, and L861Q constructs, 1 μg plasmid DNA was used for each transfection (each well of a 12-well plate). […]
For the EGFR phosphorylation ELISA, Reacti-Bind streptavidin-coated plates (Pierce) were coated with 2 μg/mL biotin-conjugated anti-Flag antibody (Sigma). […] Horseradish peroxidase activity was determined by reading the plates in a Victor2 plate reader following addition of the ELISA Femto substrate.

T2 sequence (P04626 23-1255): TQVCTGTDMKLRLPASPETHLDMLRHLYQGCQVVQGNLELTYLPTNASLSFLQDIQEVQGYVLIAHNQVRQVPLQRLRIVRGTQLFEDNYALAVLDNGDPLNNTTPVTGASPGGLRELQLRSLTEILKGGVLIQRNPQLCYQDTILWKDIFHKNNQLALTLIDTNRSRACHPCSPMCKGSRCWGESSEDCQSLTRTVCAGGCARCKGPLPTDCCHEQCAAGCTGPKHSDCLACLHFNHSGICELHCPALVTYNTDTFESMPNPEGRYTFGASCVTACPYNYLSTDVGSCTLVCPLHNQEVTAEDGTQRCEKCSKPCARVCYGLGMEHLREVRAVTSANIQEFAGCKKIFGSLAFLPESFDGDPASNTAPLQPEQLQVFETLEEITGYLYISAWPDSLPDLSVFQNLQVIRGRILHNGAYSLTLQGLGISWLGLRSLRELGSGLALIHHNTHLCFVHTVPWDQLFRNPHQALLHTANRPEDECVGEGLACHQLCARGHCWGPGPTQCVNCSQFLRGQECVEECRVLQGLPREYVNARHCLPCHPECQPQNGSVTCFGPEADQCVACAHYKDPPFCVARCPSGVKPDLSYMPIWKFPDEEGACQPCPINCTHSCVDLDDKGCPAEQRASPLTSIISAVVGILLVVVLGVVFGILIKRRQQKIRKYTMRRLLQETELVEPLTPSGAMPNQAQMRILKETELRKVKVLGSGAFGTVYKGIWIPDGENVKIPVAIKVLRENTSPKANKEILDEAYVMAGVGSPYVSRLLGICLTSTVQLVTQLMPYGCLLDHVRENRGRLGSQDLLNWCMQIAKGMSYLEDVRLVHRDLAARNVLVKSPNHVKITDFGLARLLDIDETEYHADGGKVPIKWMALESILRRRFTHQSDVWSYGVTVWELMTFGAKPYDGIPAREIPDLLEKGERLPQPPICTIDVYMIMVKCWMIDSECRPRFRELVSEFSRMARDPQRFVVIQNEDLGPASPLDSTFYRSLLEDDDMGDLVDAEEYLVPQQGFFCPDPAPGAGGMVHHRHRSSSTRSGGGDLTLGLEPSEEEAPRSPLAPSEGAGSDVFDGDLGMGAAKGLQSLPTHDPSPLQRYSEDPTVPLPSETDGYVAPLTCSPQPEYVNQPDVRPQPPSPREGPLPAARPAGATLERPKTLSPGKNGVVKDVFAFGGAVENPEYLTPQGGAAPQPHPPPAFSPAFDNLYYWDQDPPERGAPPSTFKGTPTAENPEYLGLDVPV
Chain of JNK3α (P53779 whole entry): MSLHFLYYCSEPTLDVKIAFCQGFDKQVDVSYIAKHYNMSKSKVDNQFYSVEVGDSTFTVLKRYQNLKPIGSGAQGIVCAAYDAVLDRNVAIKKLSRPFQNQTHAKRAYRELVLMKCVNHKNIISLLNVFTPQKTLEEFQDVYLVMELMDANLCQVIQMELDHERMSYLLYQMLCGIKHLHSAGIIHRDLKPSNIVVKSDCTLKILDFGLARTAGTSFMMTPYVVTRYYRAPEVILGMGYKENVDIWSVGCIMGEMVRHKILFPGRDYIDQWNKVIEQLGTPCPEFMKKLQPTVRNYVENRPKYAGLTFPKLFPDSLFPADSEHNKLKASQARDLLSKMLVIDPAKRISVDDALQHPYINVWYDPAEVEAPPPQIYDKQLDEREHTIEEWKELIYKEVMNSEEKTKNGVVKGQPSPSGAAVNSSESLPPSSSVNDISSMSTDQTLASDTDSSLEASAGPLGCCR
Chain of SAPK3 (P53778 whole entry, species assumed): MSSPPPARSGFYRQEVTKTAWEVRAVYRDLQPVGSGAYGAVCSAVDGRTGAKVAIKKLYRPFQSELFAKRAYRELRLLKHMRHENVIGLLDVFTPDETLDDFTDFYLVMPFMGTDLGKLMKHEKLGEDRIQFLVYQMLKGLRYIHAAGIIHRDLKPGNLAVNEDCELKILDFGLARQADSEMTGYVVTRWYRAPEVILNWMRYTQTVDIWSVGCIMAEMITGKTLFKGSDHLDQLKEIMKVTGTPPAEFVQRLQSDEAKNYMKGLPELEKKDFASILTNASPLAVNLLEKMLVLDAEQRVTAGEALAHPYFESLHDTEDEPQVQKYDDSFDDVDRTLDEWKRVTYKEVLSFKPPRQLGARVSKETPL
Chain of PDGFRβ (P09619 33-1106, species assumed): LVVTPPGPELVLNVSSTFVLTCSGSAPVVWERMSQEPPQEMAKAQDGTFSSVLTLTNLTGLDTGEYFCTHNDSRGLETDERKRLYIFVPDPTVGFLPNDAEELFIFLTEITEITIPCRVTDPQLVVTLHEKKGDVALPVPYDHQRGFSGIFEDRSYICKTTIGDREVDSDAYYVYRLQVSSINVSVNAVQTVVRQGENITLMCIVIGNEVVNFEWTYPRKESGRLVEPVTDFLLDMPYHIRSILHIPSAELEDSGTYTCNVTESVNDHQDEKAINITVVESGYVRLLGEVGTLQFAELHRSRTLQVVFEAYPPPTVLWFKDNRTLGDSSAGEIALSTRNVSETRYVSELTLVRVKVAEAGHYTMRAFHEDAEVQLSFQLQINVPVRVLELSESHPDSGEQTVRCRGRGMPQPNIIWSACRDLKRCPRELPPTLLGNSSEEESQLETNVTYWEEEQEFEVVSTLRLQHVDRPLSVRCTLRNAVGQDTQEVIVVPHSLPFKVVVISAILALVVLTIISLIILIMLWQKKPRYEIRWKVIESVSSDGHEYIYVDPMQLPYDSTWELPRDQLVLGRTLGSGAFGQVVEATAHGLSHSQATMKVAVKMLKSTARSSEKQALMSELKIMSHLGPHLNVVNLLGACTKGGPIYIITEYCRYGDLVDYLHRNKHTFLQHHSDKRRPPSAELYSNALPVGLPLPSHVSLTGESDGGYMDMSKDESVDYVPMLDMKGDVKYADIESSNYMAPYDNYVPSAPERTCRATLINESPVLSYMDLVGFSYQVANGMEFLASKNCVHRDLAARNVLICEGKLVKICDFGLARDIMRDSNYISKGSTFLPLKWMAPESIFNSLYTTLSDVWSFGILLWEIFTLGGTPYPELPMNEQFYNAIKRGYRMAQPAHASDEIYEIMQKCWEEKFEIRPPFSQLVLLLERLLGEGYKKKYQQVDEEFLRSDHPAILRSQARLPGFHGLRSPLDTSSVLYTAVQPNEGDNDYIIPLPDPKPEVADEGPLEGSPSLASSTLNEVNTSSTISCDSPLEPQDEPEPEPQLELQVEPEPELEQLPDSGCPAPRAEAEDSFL
T1 sequence (P34981 whole entry): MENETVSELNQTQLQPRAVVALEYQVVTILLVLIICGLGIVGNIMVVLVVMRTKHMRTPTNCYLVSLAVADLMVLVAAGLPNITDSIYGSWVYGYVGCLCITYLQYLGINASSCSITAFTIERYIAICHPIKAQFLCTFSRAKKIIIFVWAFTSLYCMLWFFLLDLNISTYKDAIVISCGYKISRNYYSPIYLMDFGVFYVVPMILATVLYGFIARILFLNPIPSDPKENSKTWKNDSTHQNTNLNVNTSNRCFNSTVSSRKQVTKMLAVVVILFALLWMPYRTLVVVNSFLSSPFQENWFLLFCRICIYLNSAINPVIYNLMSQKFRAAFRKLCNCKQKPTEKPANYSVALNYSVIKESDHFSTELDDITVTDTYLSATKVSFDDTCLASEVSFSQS
Chain of CDK5 (Q00535 whole entry, species assumed): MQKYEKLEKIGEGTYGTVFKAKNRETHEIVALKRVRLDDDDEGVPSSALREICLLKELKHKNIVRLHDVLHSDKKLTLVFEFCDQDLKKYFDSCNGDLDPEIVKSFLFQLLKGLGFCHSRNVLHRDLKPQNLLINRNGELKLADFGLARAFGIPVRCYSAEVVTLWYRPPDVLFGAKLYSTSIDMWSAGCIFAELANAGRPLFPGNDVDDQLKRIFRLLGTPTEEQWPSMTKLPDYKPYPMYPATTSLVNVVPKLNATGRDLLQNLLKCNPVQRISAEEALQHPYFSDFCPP
Chain of CDK5 (Q15078 whole entry partner, species assumed): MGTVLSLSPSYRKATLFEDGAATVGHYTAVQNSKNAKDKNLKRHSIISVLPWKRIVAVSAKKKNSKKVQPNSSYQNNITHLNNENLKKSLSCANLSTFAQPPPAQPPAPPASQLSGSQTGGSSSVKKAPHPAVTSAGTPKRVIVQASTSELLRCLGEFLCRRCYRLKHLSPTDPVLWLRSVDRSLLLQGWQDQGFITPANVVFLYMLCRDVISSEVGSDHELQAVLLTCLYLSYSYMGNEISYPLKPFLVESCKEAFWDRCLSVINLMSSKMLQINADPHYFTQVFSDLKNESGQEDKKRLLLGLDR
Chain of Blk (P51451 whole entry, species assumed): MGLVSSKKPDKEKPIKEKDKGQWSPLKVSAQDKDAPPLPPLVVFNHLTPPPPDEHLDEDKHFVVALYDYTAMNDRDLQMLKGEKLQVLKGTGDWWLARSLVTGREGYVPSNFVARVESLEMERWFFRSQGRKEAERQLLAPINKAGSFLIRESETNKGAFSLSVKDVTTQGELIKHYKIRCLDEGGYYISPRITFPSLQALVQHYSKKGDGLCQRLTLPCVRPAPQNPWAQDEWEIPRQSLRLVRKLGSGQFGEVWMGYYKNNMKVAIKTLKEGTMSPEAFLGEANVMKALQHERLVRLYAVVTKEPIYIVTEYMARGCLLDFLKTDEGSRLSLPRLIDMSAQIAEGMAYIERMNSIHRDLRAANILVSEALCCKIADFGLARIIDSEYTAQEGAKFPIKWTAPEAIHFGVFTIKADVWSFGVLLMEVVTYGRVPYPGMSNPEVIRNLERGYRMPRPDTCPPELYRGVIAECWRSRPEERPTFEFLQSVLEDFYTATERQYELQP
Chain of MKK6 (P52564 whole entry, species assumed): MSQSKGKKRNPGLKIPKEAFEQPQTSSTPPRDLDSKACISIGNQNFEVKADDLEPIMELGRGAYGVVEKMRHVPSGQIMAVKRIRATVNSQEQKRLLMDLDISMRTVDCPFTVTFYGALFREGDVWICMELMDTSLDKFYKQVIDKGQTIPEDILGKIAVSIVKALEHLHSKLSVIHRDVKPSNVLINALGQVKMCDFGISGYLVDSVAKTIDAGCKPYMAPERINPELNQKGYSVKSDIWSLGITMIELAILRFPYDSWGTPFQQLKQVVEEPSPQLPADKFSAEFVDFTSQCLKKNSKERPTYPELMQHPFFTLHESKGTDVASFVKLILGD

SMILES: COc1cc2c(Nc3ccc(Cl)c(Cl)c3F)ncnc2cc1OC[C@@H]1C[C@@H]2CN(C)C[C@@H]2C1 [XL-647, N-(3,4-dichloro-2-fluorophenyl)-7-({[(3aR,5r,6aS)-2-methyloctahydrocyclopenta[c]pyrrol-5-yl]methyl}oxy)-6-(methyloxy)quinazolin-4-amine]
- deaths attributed to study drug [1]: no deaths attributed to study drug
- inhibition at 10 µM [2]: 4.59%
- IC50 (AMPK): > 1000 nM
- IC50 (PDGFRβ): 346 ± 37 nM
- IC50 (CamKII): > 1000 nM
- IC50 (SAPK3): > 1000 nM
- IC50 (JNK3α): > 1000 nM
- IC50 (Syk): > 1000 nM
- IC50 (Blk): 15 nM
- IC50 (CDK5): > 1000 nM
- IC50 (MKK6): > 1000 nM
- IC50 (CDK2): > 1000 nM
- IC50 (PKC-γ): > 10000 nM
- Inhibition, 10 μM XL-647 [3]: 49.40%
- Single Dose Duration of Action (100 mg/kg, >50% inhibition) (p-Y-HER2/ErbB2): >72 h
- IC50 (p-Y-HER2/ErbB2; in vivo, read-out: Estimated IC50 (plasma concentration)): 3600 nM
- Phospho-EGFR Tyr1068 % Cells (Phospho-EGFR Tyr1068; 10 mg/kg): 14 ± 1.9%
- Phospho-EGFR Tyr1068 % Reduction (Phospho-EGFR Tyr1068; 10 mg/kg): 49.0^a %
- Phospho-EGFR Tyr1068 % Cells (Phospho-EGFR Tyr1068; 30 mg/kg): 12 ± 1.3%
- Phospho-EGFR Tyr1068 % Reduction (Phospho-EGFR Tyr1068; 30 mg/kg): 56.1^a %
- Phospho-EGFR Tyr1068 % Cells (Phospho-EGFR Tyr1068; 100 mg/kg): 10 ± 1.8%
- Phospho-EGFR Tyr1068 % Reduction (Phospho-EGFR Tyr1068; 100 mg/kg): 63.7^a %
- ED50 [4]: 17 mg/kg
- protein bound [5]: 93-99%
- IC50 (EGFR WT (pCMV/Lx-1)): 12 nM
